Measurements as given in the supplement of paper PMC4862054.
“And” between values parts separate entries of the source, which are not always exact repeats. Identical values can stand only once.

Legend:
Test in all cases: normalised viability (% of control), CellTiter-Blue; higher = more viable cells (about 100 = DMSO control)
Settings in all cases: incubation time: 72 h
CAL-148 [1] = tested on: CAL-148
Description: (§1)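 DSRT, CellTiter-Blue viability, 72 h incubation. Signal is normalised to DMSO and benzethonium chloride controls. Value is the normalised response at dose 8.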

CAL-51 [2] = tested on: CAL-51
Description: as §1

CAL-85-1 [3] = tested on: CAL-85-1
Description: as §1

DU-4475 [4] = tested on: DU-4475
Description: as §1

HDQ-P1 [5] = tested on: HDQ-P1
Description: as §1

MDA-MB-453 [6] = tested on: MDA-MB-453
Description: as §1

CAL-148 [7] = tested on: CAL-148; remark: listed apart in the source
Description: (§2)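 DSRT, CellTiter-Blue viability, 72 h incubation. Signal is normalised to DMSO and benzethonium chloride controls. Value is the normalised response at dose 6.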

CAL-51 [8] = tested on: CAL-51; remark: listed apart in the source
Description: as §2

CAL-85-1 [9] = tested on: CAL-85-1; remark: listed apart in the source
Description: as §2

DU-4475 [10] = tested on: DU-4475; remark: listed apart in the source
Description: as §2

HDQ-P1 [11] = tested on: HDQ-P1; remark: listed apart in the source
Description: as §2

MDA-MB-453 [12] = tested on: MDA-MB-453; remark: listed apart in the source
Description: as §2

Row | Compound | normalised viability (CAL-148 [1]) | normalised viability (CAL-51 [2]) | normalised viability (CAL-85-1 [3]) | normalised viability (DU-4475 [4]) | normalised viability (HDQ-P1 [5]) | normalised viability (MDA-MB-453 [6]) | normalised viability (CAL-148 [7]) | normalised viability (CAL-51 [8]) | normalised viability (CAL-85-1 [9]) | normalised viability (DU-4475 [10]) | normalised viability (HDQ-P1 [11]) | normalised viability (MDA-MB-453 [12])
1 | Cc1cccc(-c2nn3c(c2-c2ccnc4ccc(C(N)=O)cc24)CCC3)n1 (300 nM) | 110% | 103% | 108% | 102% | 125% | 115% | – | – | – | – | – | –
2 | COc1nc(N)nc2c1ncn2[C@@H]1O[C@H](CO)[C@@H](O)[C@@H]1O [Nelarabine] (3000 nM) | 90.6% and 84.7% | 102% and 97.6% | 94.5% and 98% | 121% and 112% | 74.7% and 87.7% | 86.7% and 106% | – | – | – | – | – | –
3 | COc1ccc(-c2cc3c(C)nc(N)nc3n([C@H]3CC[C@H](OCCO)CC3)c2=O)cn1 (3000 nM) | 6.69% | 2.65% | 10.4% | 6.45% | 10.7% | 3.88% | – | – | – | – | – | –
4 | COc1cc(CCc2cc(NC(=O)c3ccc(N4CC(C)NC(C)C4)cc3)n[nH]2)cc(OC)c1 (stereo unspecified) [AZD4547] (300 nM) | 105% | 96.4% | 95.5% | 97.8% | 117% | 56.1% | – | – | – | – | – | –
5 | C[C@]12O[C@H](C[C@]1(O)CO)n1c3ccccc3c3c4c(c5c6ccccc6n2c5c31)CNC4=O [Lestaurtinib] (30 nM) | – | – | – | – | – | – | 107% | 111% | 114% | 91.3% | 84.5% | 105%
6 | Cc1ccc(Nc2nccc(N(C)c3ccc4c(C)n(C)nc4c3)n2)cc1S(N)(=O)=O [Pazopanib] (3000 nM) | 67.7% | 87.6% | 96% | 110% | 77.9% | 42.5% | – | – | – | – | – | –
7 | O=C(NC[C@H](O)CO)c1ccncc1Nc1ccc(I)cc1F (300 nM) | – | – | – | – | – | – | 82.7% | 85.9% | 77.3% | 0.69% | 57.6% | 98%
8 | O=C1c2c(O)ccc(O)c2C(=O)c2c(NCCNCCO)ccc(NCCNCCO)c21 [Mitoxantrone] (30 nM) | – | – | – | – | – | – | 56.1% | 42.9% | 73.1% | 21.7% | 63.9% | 98%
9 | Nc1ccccc1NC(=O)c1ccc(CNc2nccc(-c3cccnc3)n2)cc1 [Mocetinostat] (3000 nM) | 37.3% | 51.7% | 23.6% | 5.41% | 71.6% | 20.6% | – | – | – | – | – | –
10 | O=S(=O)(c1cccc2cnccc12)N1CCCNCC1 [Fasudil] (3000 nM) | 81.2% | 118% | 101% | 113% | 121% | 99.4% | – | – | – | – | – | –
11 | CC[C@@]1(O)C(=O)OCc2c1cc1n(c2=O)Cc2cc3c(CN(C)C)c(O)ccc3nc2-1 [Topotecan] (300 nM) | 31.4% | 66.2% | 66.9% | 47.5% | 87.8% | 69.3% | – | – | – | – | – | –
12 | C[C@]12C=CC(=O)C=C1CC[C@@H]1[C@@H]2[C@@H](O)C[C@@]2(C)[C@H]1CC[C@]2(O)C(=O)CO [Prednisolone] (3000 nM) | 96% | 102% | 117% | 106% | 121% | 75.4% | – | – | – | – | – | –
13 | Cc1ccc(Nc2nccc(N(C)c3ccc4c(C)n(C)nc4c3)n2)cc1S(N)(=O)=O [Pazopanib] (300 nM) | – | – | – | – | – | – | 85.7% | 95.6% | 96.1% | 102% | 64% | 88.4%
14 | CCC/C=C/C=C/C(=O)O[C@H]1/C(=C/C(=O)OC)C[C@H]2C[C@H]([C@@H](C)O)OC(=O)C[C@H](O)C[C@@H]3C[C@H](OC(C)=O)C(C)(C)[C@](O)(C[C@@H]4C/C(=C/C(=O)OC)C[C@H](/C=C/C(C)(C)[C@]1(O)O2)O4)O3 [Bryostatin 1] (3 nM) | – | – | – | – | – | – | 85.5% | 98.7% | 110% | 88.7% | 78.6% | 85.9%
15 | Cn1cc(CNCC2CCN(c3ncc(C(=O)NO)cn3)CC2)c2ccccc21 (300 nM) | 1.57% | 7.57% | 8.58% | 2.97% | 18.8% | 2.81% | – | – | – | – | – | –
16 | C[C@]12O[C@H](C[C@]1(O)CO)n1c3ccccc3c3c4c(c5c6ccccc6n2c5c31)CNC4=O [Lestaurtinib] (300 nM) | 75.9% | 76.5% | 65% | 26.7% | 92.4% | 50.2% | – | – | – | – | – | –
17 | COc1ccc(-c2cc3c(C)nc(N)nc3n([C@H]3CC[C@H](OCCO)CC3)c2=O)cn1 (300 nM) | – | – | – | – | – | – | 42.2% | 30.1% | 49.9% | 65.8% | 18% | 16.9%
18 | O=C(CCBr)N1CCN(C(=O)CCBr)CC1 [Pipobroman] (300 nM) | – | – | – | – | – | – | 107% | 106% | 101% | 110% | 87.1% | 113%

Row | Compound | normalised viability (CAL-148 [1]) | normalised viability (CAL-51 [2]) | normalised viability (CAL-85-1 [3]) | normalised viability (DU-4475 [4]) | normalised viability (HDQ-P1 [5]) | normalised viability (MDA-MB-453 [6]) | normalised viability (CAL-148 [7]) | normalised viability (CAL-51 [8]) | normalised viability (CAL-85-1 [9]) | normalised viability (DU-4475 [10]) | normalised viability (HDQ-P1 [11]) | normalised viability (MDA-MB-453 [12])
19 | CCC/C=C/C=C/C(=O)O[C@H]1/C(=C/C(=O)OC)C[C@H]2C[C@H]([C@@H](C)O)OC(=O)C[C@H](O)C[C@@H]3C[C@H](OC(C)=O)C(C)(C)[C@](O)(C[C@@H]4C/C(=C/C(=O)OC)C[C@H](/C=C/C(C)(C)[C@]1(O)O2)O4)O3 [Bryostatin 1] (30 nM) | 110% | 95.3% | 111% | 65% | 100% | 96.6% | – | – | – | – | – | –
20 | CC[C@@]1(O)C(=O)OCc2c1cc1n(c2=O)Cc2cc3c(CN(C)C)c(O)ccc3nc2-1 [Topotecan] (30 nM) | – | – | – | – | – | – | 71.3% | 94.8% | 95.9% | 56.8% | 82.3% | 90.6%
21 | c1cc(CN2CCCNCCNCCCNCC2)ccc1CN1CCCNCCNCCCNCC1 [Plerixafor] (75 nM) | – | – | – | – | – | – | 85.9% | 103% | 95% | 101% | 84% | 93.3%
22 | COc1cc(CCc2cc(NC(=O)c3ccc(N4CC(C)NC(C)C4)cc3)n[nH]2)cc(OC)c1 (stereo unspecified) [AZD4547] (30 nM) | – | – | – | – | – | – | 105% | 107% | 89.7% | 92.7% | 103% | 109%
23 | CNC(=O)c1cc(Oc2ccc(NC(=O)Nc3ccc(Cl)c(C(F)(F)F)c3)cc2)ccn1 [Sorafenib] (30 nM) | – | – | – | – | – | – | 109% and 91.4% | 108% and 101% | 97.6% and 103% | 101% and 115% | 81.1% and 72.2% | 106% and 99.1%
24 | O=S(=O)(c1cccc2cnccc12)N1CCCNCC1 [Fasudil] (300 nM) | – | – | – | – | – | – | 83.7% | 107% | 97.2% | 117% | 90.9% | 106%
25 | Nc1ccccc1NC(=O)c1ccc(CNc2nccc(-c3cccnc3)n2)cc1 [Mocetinostat] (300 nM) | – | – | – | – | – | – | 87.5% | 92.9% | 85.8% | 81.9% | 57.8% | 69%
26 | CO[C@@H](C(=O)N1Cc2[nH]nc(NC(=O)c3ccc(N4CCN(C)CC4)cc3)c2C1)c1ccccc1 [Danusertib] (300 nM) | – | – | – | – | – | – | 54.6% | 60.3% | 61.9% | 57% | 50.8% | 60.2%
27 | Nc1nc(=O)c2c([nH]1)NCC(CNc1ccc(C(=O)N[C@@H](CCC(=O)O)C(=O)O)cc1)N2C=O (mixture of isomers) [Folinic acid] (29.7 nM) | – | – | – | – | – | – | 86.6% | 97.8% | 100% | 115% | 140% | 99.8%
28 | CCN(CC)CCNC(=O)c1c(C)[nH]c(/C=C2\C(=O)Nc3ccc(F)cc32)c1C [Sunitinib] (30 nM) | – | – | – | – | – | – | 99.5% and 101% | 111% and 91.1% | 96.7% and 96.2% | 84.4% and 92.7% | 74.4% and 92.3% | 93.3% and 81.3%
29 | CS(=O)(=O)N1CCN(Cc2cc3nc(-c4cccc5[nH]ncc45)nc(N4CCOCC4)c3s2)CC1 [GDC-0941] (300 nM) | – | – | – | – | – | – | 83.5% | 61% | 73.2% | 83.2% | 37.6% | 43.4%
30 | Cc1nc(Nc2ncc(C(=O)Nc3c(C)cccc3Cl)s2)cc(N2CCN(CCO)CC2)n1 [Dasatinib] (30 nM) | – | – | – | – | – | – | 110% and 90.6% | 59.8% and 68.3% | 83.9% and 86% | 105% and 87.6% | 24.4% and 18.2% | 102% and 101%
31 | Cc1c(CN2CCN(C(=O)[C@H](C)O)CC2)sc2c(N3CCOCC3)nc(-c3cnc(N)nc3)nc12 [GDC-0980] (300 nM) | – | – | – | – | – | – | 52.1% | 38.7% | 62% | 68.3% | 29.7% | 18.3%
32 | C[C@]12C=CC(=O)C=C1CC[C@@H]1[C@@H]2[C@@H](O)C[C@@]2(C)[C@H]1CC[C@]2(O)C(=O)CO [Prednisolone] (300 nM) | – | – | – | – | – | – | 105% | 104% | 110% | 113% | 64.2% | 79.4%
33 | O=C(Nc1c[nH]nc1-c1nc2ccc(CN3CCOCC3)cc2[nH]1)NC1CC1 [AT9283] (300 nM) | – | – | – | – | – | – | 61.9% | 59.1% | 87.7% | 28.4% | 61.1% | 58.1%
34 | Cc1cccc(-c2nn3c(c2-c2ccnc4ccc(C(N)=O)cc24)CCC3)n1 (30 nM) | – | – | – | – | – | – | 89.8% | 103% | 96.7% | 95.8% | 100% | 93.3%
35 | Cn1cc(CNCC2CCN(c3ncc(C(=O)NO)cn3)CC2)c2ccccc21 (30 nM) | – | – | – | – | – | – | 24.2% | 70.1% | 38.9% | 29.3% | 37.5% | 4.37%
36 | Nc1cccc2c1CN(C1CCC(=O)NC1=O)C2=O (stereo unspecified) [Lenalidomide] (300 nM) | – | – | – | – | – | – | 92% and 96.1% | 107% and 103% | 87.3% and 90.2% | 103% and 86.6% | 66.2% and 69.3% | 97.7% and 101%
